Drawing on US20230203029A1 (priority 2020, published 2023), this text covers IC50 for 13 compounds.

Assay [1] addresses T1, human MERTK cytoplasmic domain (Homo sapiens, UniProt Q12866).
T1 construct: human MERTK cytoplasmic domain (Carna Biosciences 08-108); purchased Carna Biosciences 08-108
The assay can be described thus: biochemical. To be noted: 30 uM ATP, read-out: Assay 1a Mer IC50 30 uM ATP. As to the method:
Assay 1a—MERTK HTRF KinEASE-TK Assay
The enzymatic reaction was carried out for 30 min at room temperature. 10 μL TK Antibody-Cryptate/Streptavidin-XL665 (Cisbio 610SAXLG) was then added for 60 min, including EDTA containing detection buffer (Cisbio 62SDBRDF) to stop the reaction.

The target in assay [2] is T2, recombinant human AXL expressed in live cells (HEK, AXL-Nanoluc fusion vector) (Homo sapiens, UniProt P30530).
T2 construct: host or cells: HEK
T2 sequence (P30530 26-894): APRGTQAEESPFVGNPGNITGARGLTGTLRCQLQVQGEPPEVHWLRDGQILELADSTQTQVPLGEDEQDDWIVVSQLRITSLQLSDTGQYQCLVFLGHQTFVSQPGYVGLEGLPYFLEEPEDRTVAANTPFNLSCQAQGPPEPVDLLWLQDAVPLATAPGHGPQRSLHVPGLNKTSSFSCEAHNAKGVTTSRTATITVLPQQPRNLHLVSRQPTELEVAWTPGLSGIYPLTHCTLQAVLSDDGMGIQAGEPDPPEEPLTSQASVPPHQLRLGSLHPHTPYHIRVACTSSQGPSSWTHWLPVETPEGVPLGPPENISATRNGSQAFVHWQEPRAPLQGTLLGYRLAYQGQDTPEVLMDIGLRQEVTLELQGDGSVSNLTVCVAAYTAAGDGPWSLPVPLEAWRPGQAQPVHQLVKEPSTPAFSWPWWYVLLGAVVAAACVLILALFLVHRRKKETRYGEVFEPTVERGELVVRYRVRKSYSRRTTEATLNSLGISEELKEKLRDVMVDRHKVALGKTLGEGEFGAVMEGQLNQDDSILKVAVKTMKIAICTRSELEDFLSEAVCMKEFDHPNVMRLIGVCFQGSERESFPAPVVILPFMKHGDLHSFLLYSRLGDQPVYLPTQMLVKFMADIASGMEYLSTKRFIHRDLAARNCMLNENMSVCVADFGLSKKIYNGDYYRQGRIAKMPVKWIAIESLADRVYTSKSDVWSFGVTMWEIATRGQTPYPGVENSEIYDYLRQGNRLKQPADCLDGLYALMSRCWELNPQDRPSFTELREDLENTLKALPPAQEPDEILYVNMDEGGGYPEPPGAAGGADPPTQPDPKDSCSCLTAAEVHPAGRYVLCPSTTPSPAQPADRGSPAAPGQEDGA
Put plainly: Assay 3 AXL cellular target engagement (NanoBRET TE) assay. In kind it is cell-based. As to the method: Assay 3—AXL Cellular Target Engagement (TE) Assay
Compound affinities for recombinant human AXL expressed in live cells were assessed via the Promega NanoBRET TE assay technology. Human Embryonic Kidney (HEK) cells were transiently transfected with the AXL-Nanoluc fusion vector (Promega Cat NV1071) using Fugene HD reagent (Promega E2311). […] Incubations were conducted for 2 h at 37° C., after which 20 μl NanoGlo substrate/inhibitor mix (Promega N2161) was added to each well for 2-3 min. The plate was then read on a BMG Pherastar FSX using a NanoBRET filter to record donor emission at 450 nm and acceptor fluorophore emission at 610 nm. From this the BRET ratio (acceptor 610 nm/donor 450 nm) for each data point was calculated.
For orientation: In BRET a luciferase serves as donor, and the signal depends on an acceptor being close.

Assay [3] has as its target T3, recombinant human MERTK expressed in live cells (HEK 293, MERTK-Nanoluc fusion vector) (Homo sapiens, UniProt Q12866).
T3 construct: host or cells: HEK 293
T3 sequence (Q12866 21-999): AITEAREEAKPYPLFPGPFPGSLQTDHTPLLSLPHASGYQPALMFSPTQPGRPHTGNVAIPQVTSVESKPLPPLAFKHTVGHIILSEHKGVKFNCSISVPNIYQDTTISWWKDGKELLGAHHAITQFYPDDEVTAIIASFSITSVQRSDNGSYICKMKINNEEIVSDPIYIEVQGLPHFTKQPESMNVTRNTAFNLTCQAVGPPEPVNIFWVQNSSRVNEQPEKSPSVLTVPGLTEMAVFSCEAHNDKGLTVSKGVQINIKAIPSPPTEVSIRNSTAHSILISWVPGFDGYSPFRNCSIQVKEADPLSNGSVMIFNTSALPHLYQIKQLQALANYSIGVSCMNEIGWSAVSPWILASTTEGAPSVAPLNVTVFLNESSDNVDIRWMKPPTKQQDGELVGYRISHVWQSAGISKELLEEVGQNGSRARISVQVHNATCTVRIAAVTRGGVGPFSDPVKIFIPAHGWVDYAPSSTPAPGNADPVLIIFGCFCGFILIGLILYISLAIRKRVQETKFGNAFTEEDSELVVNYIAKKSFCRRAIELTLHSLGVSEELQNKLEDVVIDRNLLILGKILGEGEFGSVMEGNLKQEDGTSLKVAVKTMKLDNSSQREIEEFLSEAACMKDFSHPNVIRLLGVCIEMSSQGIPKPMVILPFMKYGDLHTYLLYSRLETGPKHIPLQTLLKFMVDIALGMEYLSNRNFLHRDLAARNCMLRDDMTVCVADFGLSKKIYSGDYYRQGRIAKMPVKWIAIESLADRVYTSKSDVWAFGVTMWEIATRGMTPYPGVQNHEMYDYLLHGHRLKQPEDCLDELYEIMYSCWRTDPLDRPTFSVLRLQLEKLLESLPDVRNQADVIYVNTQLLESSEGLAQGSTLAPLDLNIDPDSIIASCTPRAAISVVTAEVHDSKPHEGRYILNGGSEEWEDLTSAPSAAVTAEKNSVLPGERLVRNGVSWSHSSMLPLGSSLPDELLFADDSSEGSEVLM
Put plainly: Assay 2 MERTK cellular target engagement (NanoBRET TE) assay. In kind it is cell-based. To be noted: HEK 293 cells, tracer K9, 2 h at 37° C.; read-out: Assay 2 Cell TE MER IC50.

Setting [4] is: * Maximal inhibition achieved 40%.

What is called IC50 is the concentration that inhibits the measured activity by half.

Molecules are shown by their SMILES. Like-named read-outs stand apart in the source and are kept apart here.

Turning to `O=C(Nc1ccc(Nc2ccnc3cnc(N4CCNCC4)cc23)cc1)c1cccn(-c2ccccc2)c1=O` [Example 1, 2-oxo-1-phenyl-N-[4-[(6-piperazin-1-yl-1,7-naphthyridin-4-yl)amino]phenyl]pyridine-3-carboxamide], the values for the IC50 in assay [1], in assay [2] and in assay [3] were 68 nM, 145 nM and 175 nM, respectively.
For `CC(C)n1cc(C(=O)Nc2ccc(Nc3ccnc4cnc(N5CCNCC5)cc34)cc2)c(=O)n(-c2ccc(F)cc2)c1=O` [Example 1.1, 3-(4-fluorophenyl)-1-isopropyl-2,4-dioxo-N-[4-[(6-piperazin-1-yl-1,7-naphthyridin-4-yl)amino]phenyl]pyrimidine-5-carboxamide], in that order: 75 nM, 2.9 nM and 1750 nM.
For `O=C(Nc1ccc(Nc2ccnc3cnc(N4CCNCC4)cc23)cc1)c1cccn(-c2ccc(F)cc2)c1=O` [Example 1.2, 1-(4-fluorophenyl)-2-oxo-N-[4-[(6-piperazin-1-yl-1,7-naphthyridin-4-yl)amino]phenyl]pyridine-3-carboxamide], in that order: 20 nM, 114 nM and 28 nM.
On the same counts, the results for `CC(C)n1cc(C(=O)Nc2ccc(Nc3ccnc4cnc(N5CCNCC5)cc34)cc2)c(=O)n(-c2ccccc2)c1=O` [Example 1.3, 1-isopropyl-2,4-dioxo-3-phenyl-N-[4-[(6-piperazin-1-yl-1,7-naphthyridin-4-yl)amino]phenyl]pyrimidine-5-carboxamide] are 182 nM, 24.8 nM and 260 nM.
For the compound `O=C(Nc1ccc(Nc2ccnc3cnc(N4CCC(O)CC4)cc23)cc1)c1cccn(-c2ccccc2)c1=O` [Example 2, N-[4-[[6-(4-hydroxy-1-piperidyl)-1,7-naphthyridin-4-yl]amino]phenyl]-2-oxo-1-phenyl-pyridine-3-carboxamide], the IC50 in assay [1] was determined as 59 nM; in assay [2], 173 nM; in assay [3], 46.6 nM.
For `O=C(Nc1ccc(Nc2ccnc3cnc(N4CCOCC4)cc23)cc1)c1cccn(-c2ccccc2)c1=O` [Example 2.1, N-[4-[(6-morpholino-1,7-naphthyridin-4-yl)amino]phenyl]-2-oxo-1-phenyl-pyridine-3-carboxamide], in that order: 196 nM, 1410 nM and 163 nM.
On the same counts, the results for `O=C(Nc1ccc(Nc2ccnc3cnc(N4CCCNCC4)cc23)cc1)c1cccn(-c2ccccc2)c1=O` [Example 2.2, N-[4-[[6-(1,4-diazepan-1-yl)-1,7-naphthyridin-4-yl]amino]phenyl]-2-oxo-1-phenyl-pyridine-3-carboxamide] are 54 nM, 189 nM and 23.7 nM.
On the same counts, the results for `CN1CCC(n2cc(-c3cc4c(Nc5ccc(NC(=O)c6cccn(-c7ccccc7)c6=O)cc5)ccnc4cn3)cn2)CC1` [Example 4.1, N-[4-[[6-[1-(1-methyl-4-piperidyl)pyrazol-4-yl]-1,7-naphthyridin-4-yl]amino]phenyl]-2-oxo-1-phenyl-pyridine-3-carboxamide] are 37 nM, 133 nM and 131 nM.
Turning to `O=C(N[C@H]1CC[C@H](O)CC1)c1cc2c(Nc3ccc(NC(=O)c4cccn(-c5ccccc5)c4=O)cc3)ccnc2cn1` [Example 5, N-(4-hydroxycyclohexyl)-4-[4-[(2-oxo-1-phenyl-pyridine-3-carbonyl)amino]anilino]-1,7-naphthyridine-6-carboxamide], the IC50 in assay [1] turned out to be 60 nM; in assay [2], 97.5 nM; in assay [3], 96.1 nM.
For the compound `O=C(NOCCO)c1cc2c(Nc3ccc(NC(=O)c4cccn(-c5ccccc5)c4=O)cc3)ccnc2cn1` [Example 5.1, N-(2-hydroxyethoxy)-4-[4-[(2-oxo-1-phenyl-pyridine-3-carbonyl)amino]anilino]-1,7-naphthyridine-6-carboxamide], the figures for the IC50 in assay [1], in assay [2] and in assay [3] were 70 nM, 335 nM and 135 nM, respectively.
Turning to `NC(=O)c1cc2c(Nc3ccc(NC(=O)c4cccn(-c5ccccc5)c4=O)cc3)ccnc2cn1` [Example 5.2, 4-[4-[(2-oxo-1-phenyl-pyridine-3-carbonyl)amino]anilino]-1,7-naphthyridine-6-carboxamide], the IC50 was 17 nM in assay [1] (setting [4]), 363 nM in assay [2] and 174 nM in assay [3].
On the same counts, the results for `CNC(=O)c1cc2c(Nc3ccc(NC(=O)c4cccn(-c5ccccc5)c4=O)cc3)ccnc2cn1` [Example 5.3, N-methyl-4-[4-[(2-oxo-1-phenyl-pyridine-3-carbonyl)amino]anilino]-1,7-naphthyridine-6-carboxamide] are 11 nM, 46.7 nM and 41.9 nM.
As for `CN1CCC(NC(=O)c2cc3c(Oc4ccc(NC(=O)c5cccn(-c6ccccc6)c5=O)cc4)ccnc3cn2)CC1` [Example 6, N-(1-methyl-4-piperidyl)-4-[4-[(2-oxo-1-phenyl-pyridine-3-carbonyl)amino]phenoxy]-1,7-naphthyridine-6-carboxamide], the IC50 in assay [1] worked out at 52 nM; in assay [2] it was 110 nM; in assay [3], 110 nM.
